Twelve molecules from patent US12371454B2, “Cyclic peptide compound having Kras inhibitory action” (priority 2019, dated 2025) can be followed below.

Positions of bridges follow the written chain, without caps; N, C: chain ends. Non-standard residues stand in square brackets, D forms with d. Residues, ends and D or L forms follow the SMILES beside them. *: point of attachment. hPhe(3-Cl-4-CF3) = N[C@@H](CCc1ccc(C(F)(F)F)c(Cl)c1)C(=O)O; hPhe(3-F,4-CF3) = N[C@@H](CCc1ccc(C(F)(F)F)c(F)c1)C(=O)O; NMePhe(4-CF3) = CN[C@@H](Cc1ccc(C(F)(F)F)cc1)C(=O)O; 3Oxa8azabicyclo(3.2.1)octane = C1CC2COCC1N2*; NMePhe(4-Me) = CN[C@@H](Cc1ccc(C)cc1)C(=O)O; NMeAla(cPent) = CN[C@@H](CC1CCCC1)C(=O)O; NMeGly(cPent) = CN[C@H](C(=O)O)C1CCCC1; Gly(cPent) = N[C@H](C(=O)O)C1CCCC1; NMeCha = CN[C@@H](CC1CCCCC1)C(=O)O; NMehLeu = CN[C@@H](CCC(C)C)C(=O)O; NEtLeu = CCN[C@@H](CC(C)C)C(=O)O; NMeI = CC[C@H](C)[C@H](NC)C(=O)O; NMeD = CN[C@@H](CC(=O)O)C(=O)O; NMeL = CN[C@@H](CC(C)C)C(=O)O; d(β3hA) = C[C@@H](N)CC(=O)O; Azetidin(1-yl) = C1CN(*)C1; NMeS = CN[C@@H](CO)C(=O)O; Morpholide = C1CN(*)CCO1; NMeA = CN[C@@H](C)C(=O)O; Pyrrolidide = C1CCN(*)C1; Ac5c = NC1(C(=O)O)CCCC1; Aze = O=C(O)[C@@H]1CCN1; NEtG = CCNCC(=O)O; Sar = CNCC(=O)O; Propyl = CCC*

The assay has as its system Human pancreatic cancer cell line AsPC-1. The assay is described as follows: Measurement of AsPC-1 cell growth inhibition (AsPC-1 CGI). In kind it is cell-based. The note with it: 96 h. The method, boiled down:
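AsPC-1 cells in 15% FBS RPMI-1640 were exposed to test compound for 96 hours at 37° C, with CellTiter-Glo as endpoint.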
The molecule `CC[C@H](C)[C@@H]1NC(=O)[C@H](CC(C)C)N(C)C(=O)C[C@@H](C(=O)N2CCOCC2)N(C)C(=O)[C@H](C2CCCC2)N(C)C(=O)C2(CCCC2)NC(=O)[C@@H]2CCCN2C(=O)[C@H](CCc2ccc(C(F)(F)F)c(Cl)c2)NC(=O)CN(CC)C(=O)[C@H](C2CCCC2)N(C)C(=O)[C@@H]2CCN2C(=O)[C@H](C)N(C)C1=O` [Compound 1142] ([NMeL]I[NMeA][Aze][NMeGly(cPent)][NEtG][hPhe(3-Cl-4-CF3)]P[Ac5c][NMeGly(cPent)][NMeD]-Morpholide; lactam N-11) showed an IC50 of 20 to 50 nM. Under `CC[C@H](C)[C@@H]1NC(=O)[C@H](CC2CCCC2)N(C)C(=O)C[C@@H](C(=O)N2CCOCC2)N(C)C(=O)[C@H](C2CCCC2)N(C)C(=O)C2(CCCC2)NC(=O)[C@@H]2CCCN2C(=O)[C@H](CCc2ccc(C(F)(F)F)c(Cl)c2)NC(=O)CN(C)C(=O)[C@H](C2CCCC2)N(C)C(=O)[C@@H]2CCN2C(=O)[C@H](C)NC1=O` [Compound 1145] ([NMeAla(cPent)]IA[Aze][NMeGly(cPent)][Sar][hPhe(3-Cl-4-CF3)]P[Ac5c][NMeGly(cPent)][NMeD]-Morpholide; lactam N-11) stands 100 to 500 nM; under `CC[C@H](C)[C@@H]1NC(=O)[C@H](CC(C)C)N(CC)C(=O)C[C@@H](C(=O)N2CCCC2)N(C)C(=O)[C@H]([C@@H](C)CC)N(C)C(=O)C2(CCCC2)NC(=O)[C@@H]2CCCN2C(=O)[C@H](CCc2ccc(C(F)(F)F)c(Cl)c2)NC(=O)CN(C)C(=O)[C@H](Cc2ccc(C(F)(F)F)cc2)N(C)C(=O)[C@@H]2CCN2C(=O)[C@H](C)NC1=O` [Compound 1146] ([NEtLeu]IA[Aze][NMePhe(4-CF3)][Sar][hPhe(3-Cl-4-CF3)]P[Ac5c][NMeI][NMeD]-Pyrrolidide; lactam N-11), 20 to 50 nM. With `CCCOC[C@H]1C(=O)N(C)CC(=O)N[C@@H](CCc2ccc(C(F)(F)F)c(Cl)c2)C(=O)N2CCC[C@H]2C(=O)NC2(CCCC2)C(=O)N(C)[C@@H](C2CCCC2)C(=O)N(C)[C@H](C(=O)N2C3CCC2COC3)CC(=O)N(C)[C@@H](CCC(C)C)C(=O)N[C@@H]([C@@H](C)CC)C(=O)N(C)[C@@H](C)C(=O)N2CC[C@H]2C(=O)N1C` [Compound 1154] ([NMehLeu]I[NMeA][Aze][NMeS](Propyl)[Sar][hPhe(3-Cl-4-CF3)]P[Ac5c][NMeGly(cPent)][NMeD]-{3Oxa8azabicyclo(3.2.1)octane}; lactam N-11), the IC50 fell in the range of 20 to 50 nM.

For `CC[C@H](C)[C@@H]1NC(=O)[C@H](CC(C)C)N(C)C(=O)C[C@@H](C(=O)N2CCCC2)N(C)C(=O)[C@H]([C@@H](C)CC)N(C)C(=O)C2(CCCC2)NC(=O)[C@@H]2CCCN2C(=O)[C@H](CCc2ccc(C(F)(F)F)c(Cl)c2)NC(=O)CN(CC)C(=O)[C@H](Cc2ccc(C(F)(F)F)cc2)N(C)C(=O)[C@@H]2CCN2C(=O)[C@H](C)N(C)C1=O` [Compound 1159] ([NMeL]I[NMeA][Aze][NMePhe(4-CF3)][NEtG][hPhe(3-Cl-4-CF3)]P[Ac5c][NMeI][NMeD]-Pyrrolidide; lactam N-11), the IC50 is 20 to 50 nM.

Consider `CC[C@H](C)[C@@H]1NC(=O)[C@H](CC(C)C)N(C)C(=O)C[C@@H](C(=O)N(C)C)N(C)C(=O)[C@H](C2CCCC2)N(C)C(=O)C2(CCCC2)NC(=O)[C@@H]2CCCN2C(=O)[C@H](CCc2ccc(C(F)(F)F)c(F)c2)NC(=O)CN(C)C(=O)[C@H](CC2CCCCC2)N(C)C(=O)[C@@H]2CCN2C(=O)[C@H](C)NC1=O` [Compound 1164] ([NMeL]IA[Aze][NMeCha][Sar][hPhe(3-F,4-CF3)]P[Ac5c][NMeGly(cPent)][NMeD]-NMe2; lactam N-11), for which the IC50 was 20 to 50 nM. In the case of `CCCOC[C@H]1C(=O)N(C)CC(=O)N[C@@H](CCc2ccc(C(F)(F)F)c(Cl)c2)C(=O)N2CCC[C@H]2C(=O)NC2(CCCC2)C(=O)N(C)[C@@H](C2CCCC2)C(=O)N(C)[C@H](C(=O)N2C3CCC2COC3)CC(=O)N(CC)[C@@H](CC(C)C)C(=O)N[C@@H]([C@@H](C)CC)C(=O)N[C@@H](C)C(=O)N2CC[C@H]2C(=O)N1C` [Compound 1167] ([NEtLeu]IA[Aze][NMeS](Propyl)[Sar][hPhe(3-Cl-4-CF3)]P[Ac5c][NMeGly(cPent)][NMeD]-{3Oxa8azabicyclo(3.2.1)octane}; lactam N-11) it was 100 to 500 nM; in that of `CC[C@H](C)[C@@H]1NC(=O)[C@H](CCC(C)C)N(C)C(=O)C[C@@H](C(=O)N2CCOCC2)N(C)C(=O)[C@H](C2CCCC2)N(C)C(=O)C2(CCCC2)NC(=O)[C@@H]2CCCN2C(=O)[C@H](CCc2ccc(C(F)(F)F)c(Cl)c2)NC(=O)CN(C)C(=O)[C@H](CC2CCCCC2)N(C)C(=O)[C@@H]2CCN2C(=O)[C@H](C)NC1=O` [Compound 1171] ([NMehLeu]IA[Aze][NMeCha][Sar][hPhe(3-Cl-4-CF3)]P[Ac5c][NMeGly(cPent)][NMeD]-Morpholide; lactam N-11), 20 to 50 nM; in that of `CC[C@H](C)[C@@H]1NC(=O)[C@H](CC2CCCC2)N(C)C(=O)C[C@@H](C(=O)N2CCOCC2)N(C)C(=O)[C@H](C2CCCC2)N(C)C(=O)C2(CCCC2)NC(=O)[C@@H]2CCCN2C(=O)[C@H](CCc2ccc(C(F)(F)F)c(Cl)c2)NC(=O)CN(C)C(=O)[C@H](CC2CCCCC2)N(C)C(=O)[C@@H]2CCN2C(=O)[C@H](C)NC1=O` [Compound 1176] ([NMeAla(cPent)]IA[Aze][NMeCha][Sar][hPhe(3-Cl-4-CF3)]P[Ac5c][NMeGly(cPent)][NMeD]-Morpholide; lactam N-11), 50 to 100 nM. In the case of `CCCOC[C@H]1C(=O)N(C)CC(=O)N[C@@H](CCc2ccc(C(F)(F)F)c(Cl)c2)C(=O)N2CCC[C@H]2C(=O)NC2(CCCC2)C(=O)N(C)[C@@H](C2CCCC2)C(=O)N(C)[C@H](C(=O)N2C3CCC2COC3)CC(=O)N(CC)[C@@H](CC(C)C)C(=O)N[C@@H]([C@@H](C)CC)C(=O)N(C)[C@@H](C)C(=O)N2CC[C@H]2C(=O)N1C` [Compound 1193] ([NEtLeu]I[NMeA][Aze][NMeS](Propyl)[Sar][hPhe(3-Cl-4-CF3)]P[Ac5c][NMeGly(cPent)][NMeD]-{3Oxa8azabicyclo(3.2.1)octane}; lactam N-11) it was 20 to 50 nM; in that of `CC[C@H](C)[C@@H]1NC(=O)[C@H](CC(C)C)N(CC)C(=O)C[C@@H](C(=O)N2CCC2)N(C)C(=O)[C@H](C2CCCC2)N(C)C(=O)C2(CCCC2)NC(=O)[C@@H]2CCCN2C(=O)[C@H](CCc2ccc(C(F)(F)F)c(Cl)c2)NC(=O)CN(C)C(=O)[C@H](CC2CCCCC2)N(C)C(=O)[C@@H]2CCN2C(=O)[C@H](C)N(C)C1=O` [Compound 1198] ([NEtLeu]I[NMeA][Aze][NMeCha][Sar][hPhe(3-Cl-4-CF3)]P[Ac5c][NMeGly(cPent)][NMeD]-{Azetidin(1-yl)}; lactam N-11), 20 to 50 nM; in that of `CC[C@H](C)[C@@H]1NC(=O)[C@H](CC(C)C)N(C)C(=O)C[C@@H](C)NC(=O)[C@H](C2CCCC2)NC(=O)C2(CCCC2)NC(=O)[C@@H]2CCCN2C(=O)[C@H](CCc2ccc(C(F)(F)F)c(Cl)c2)NC(=O)CN(C)C(=O)[C@H](Cc2ccc(C)cc2)N(C)C(=O)[C@@H]2CCN2C(=O)[C@H](C)N(C)C1=O` [Compound 1213] (cyclo([Ac5c][Gly(cPent)][d(β3hA)][NMeL]I[NMeA][Aze][NMePhe(4-Me)][Sar][hPhe(3-Cl-4-CF3)]P)), 100 to 500 nM.

As a reminder, the IC50 is the concentration that gives 50% inhibition. Read a low IC50 as greater potency.
